Results: PMC12418703, “Avenanthramides and avenacosides as biomarkers of oat intake: a pharmacokinetic study of solid and liquid oat consumption under single and repeated dose conditions” (Nutrition Journal, 2025)
Read-outs that look alike come from different tables or passages of the source.

Columns and labels:
[1] = Plasma pharmacokinetics after a single dose of liquid or solid oat product (compartmental PK model); format: in vivo, humans; parameters: V/F: unit not given here; details: for Cmax / half-life / k el / Tmax: both sexes, oral; for Cmax / half-life / k el: human, plasma; for Cmax / half-life / k el / Tmax / ka / V/F / T1/2: single dose; for k el: elimination rate (Table 2), read-out: ke (converted); for Tmax: human plasma, derived from PK model; for V, population estimate (RSE%) / ka, population estimate (RSE%) / ke, population estimate (RSE%): Table S1 compartmental model; for ka: absorption rate (Table 2); for V/F: distribution volume over bioavailability
Excerpt: A non-blinded, randomized two-way crossover study with two different oat products (solid or liquid) was designed to investigate the AVA and AVE PK after a single dose and after repeated dosing at three different doses, for respective food (Fig. 2). Since this is the first study of its kind, it is impossible to make any formal calculation of the number of subjects needed to show meaningful differences in plasma biomarker concentrations, since the variation is unknown. However, similar studies aimed for BFI discovery and validation of dose-response have typically used 5–30 subjects. We therefore considered 23 individuals as a good compromise between feasibility and possibilities to assess variation in biomarker concentrations, estimate pharmacokinetic parameters, dose response and performing modelling with good precision. A scientist not involved in the study, conducted the randomization using the RAR method (RandomizeR package) in R software environment and provided lists with allocated treatment sequences. The study was conducted in two phases. In the first phase, blood samples were drawn from 11 men and 12 women for 24 h after consumption of a single dose of either a solid or a liquid oat product on-site. Breakfast and lunch were also provided on-site. A single dose of solid (62 g of oat flakes) or liquid (196 mL of oat drink) containing individual AVAs and AVEs shown in Table 1 were consumed, respectively. Blood plasma samples were drawn for 24 h (0 h, 0.25 h, 0.5 h, 0.75 h, 1 h, 1.5 h, 2 h, 3 h, 4 h, 5 h, 6 h, 7 h, 8 h, 24 h). After the 24 h, at the second phase of the study, the corresponding product was further consumed three times per day for four days at either a low, medium, or high intake dose (98, 196 and 392 mL for liquid oats and 31, 62 and 123 g for oat flakes with corresponding contents of AVAs and AVEs (Table 1) in a Latin square design. Therefore, a total number of 8 participants (2 males and 6 females) were randomized to the low dose, 9 participants (3 males and 6 females) for medium dose and 6 participants (3males and 3 females) for the high dose. Participants consumed the provided products at home and were instructed to follow their habitual diets with restriction on the consumption of oat products. A list of relevant foods was provided as a guide. The oat flakes were pre-portioned into individual bags and could be consumed without heating, mixed with yoghurt, cottage cheese, sour milk or any liquid. Participants were instructed to consume the full amount, including the liquid or food the oats were mixed with. Liquid oat products were weighed prior consumption, and they were to be consumed without any additional food. In all cases the time of oat intake was recorded in a food journal. On the fifth day of phase II, a fasting sample was drawn. Fecal samples were collected at baseline and at the end of phase II of the intervention. Between each study period, there was a wash-out period of eight days where participants consumed their habitual diet. After the washout, participants started with a single dose and repeated dosing for the other product in the same way as for the first. The participants were instructed to avoid foods containing oats during the last three days prior to the start of the study and during the last three days of the wash-out period. Compliance was assessed based on information provided in a compliance journal during the study weeks as well as through 2-day food records. The oat products used in the study were provided to the participants. The flakes for the single dose were consumed with water ad lib and for the repeated dose they could be mixed with water, yoghurt, milk, sour milk or cottage cheese with the condition that all the amount of the oat product is consumed. The oat drink was consumed without any other product.
All blood samples were collected into EDTA-coated tubes by a trained nurse. […]

[2] = tested on: Feacalibacterium prausnitzii; assay: Association of F. prausnitzii relative abundance at baseline with Cmax and AUC strata (logistic regression); parameters: species or system humans; details: liquid, solid, or combined; single dose phase I
Protocol: DNA was extracted from approximately 35 mg of each of the 451 fecal samples using the NucleoSpin Soil kit (Macherey-Nagel, 740780.250 M), following the manufacturer’s instructions. DNA yield was quantified using the Qubit 1X dsDNA Broad Range assay kit (Thermo Fisher Scientific, Q33266). For metagenomic shotgun sequencing, libraries were prepared with the MGIEasy Fast FS DNA Library Prep Set (MGI Tech Co., Ltd., 940-000030-00, Werheim, Germany), using 400 ng of DNA per sample. The library preparation process included DNA shearing for 12.5 min, followed by end repair, A-tailing, and magnetic bead-based cleanup. Adapter ligation and cleanup were then performed, followed by PCR amplification and magnetic bead-based size selection of the final library product. Library quality was assessed using the Qubit 1X dsDNA HS Assay Kit (Thermo Fisher Scientific, Q33231) and the Agilent High Sensitivity D1000 Assay Kit (Agilent Technologies, 5067–5584 and 5067–5585, Santa Clara, CA, USA). Pooled libraries were circularized, barcoded, and used as templates for DNA nanoball preparation. The nanoballs were then analyzed on the DNBSEQ-T7 platform (MGI Tech Co., Ltd.) using the DNBSEQ-T7RS High-throughput Sequencing Set (FCL PE150), according to the manufacturer’s guidelines.
Raw metagenomic reads underwent quality control to remove low-quality sequences, adapters, and contaminants using Fastp (version 0.23.2, default parameters). High-quality reads were filtered to exclude human reads (GRCh38_noalt_as) using Bowtie2 [38] (version 2.5.3). The quality-filtered reads were then aligned to the taxonomy database using MetaPhlAn (version 4.0.6, default parameters) to generate relative abundance profiles. For inclusion in the analysis, a species was required to be present in at least three samples.
For the seven metabolites AVE A, AVE B, AVA 2c, AVA 2f, AVA 2fd, AVA 2p, AVA 2pd analysed at phase I after the single dose of oat products, Cmax and area under the curve (AUC) were stratified based on less than the median or more or equal to the […]. Thereafter, for each metabolite, it was investigated whether the relative abundance of F. prausnitzii at baseline could predict the strata since this bacterium has previously been reported to be responsible for production of their dihydro-metabolites. Logistic regression with a binomial distribution and a logistic link function was used to separately analyze the liquid and solid products. When analyzing liquid and solid products together, a generalized linear mixed model with a binomial distribution and a logistic link function was used, with identity included as a random factor.

[3] = parameters: method as in PMID 30977921; details: cited from earlier work
[4] = parameters: method as in PMID 39491249; details: in the presence of starch; cited from earlier work
[5] = 62 g of oat flakes, solid oat product (62 g oat flakes)
[6] = 196 mL of oat drink, liquid oat product (196 mL oat drink)
[7] = control samples (digestion without proteins)
[8] = in the presence of whey protein

Cmax ([1]; 62 g of oat flakes, solid) [nM] | half-life ([1]; 62 g of oat flakes, solid) [h] | k el ([1]; 62 g of oat flakes, solid) [s⁻¹] | Cmax ([1]; 196 mL of oat drink, liquid) [nM] | half-life ([1]; 196 mL of oat drink, liquid) [h] | k el ([1]; 196 mL of oat drink, liquid) [s⁻¹] | Tmax [1, 5] [h] | Tmax [1, 6] [h] | V, population estimate (RSE%) ([1]; liquid) | ka, population estimate (RSE%) ([1]; liquid) | ke, population estimate (RSE%) ([1]; liquid) | ka ([1]; liquid) | V/F ([1]; liquid) | V, population estimate (RSE%) ([1]; solid) | ka, population estimate (RSE%) ([1]; solid) | ke, population estimate (RSE%) ([1]; solid) | ka ([1]; solid) [h⁻¹] | V/F ([1]; solid) | association between F. prausnitzii abundance at baseline and Cmax and AUC [2] | Compound | change of bioaccessibility [4] | other results
4.91 ± 0.52 | 2.13 ± 0.16 | 9.17e-05 | 1.16 ± 0.12 | 1.58 ± 0.12 | 0.000122 | 1.37 ± 0.06 | 0.73 ± 0.03 | 500 (19) L | 5.9 (18) 1/h | 0.43 (17) 1/h | 6.0 ± 0.3^1 1/h | 430 ± 42^2 | 720 (22) L | 2.8 (10) 1/h | 0.31 (17) 1/h | 2.8 ± 0.16 | 698 ± 71 | no significant associations | O=C(/C=C/c1ccc(O)c(O)c1)Nc1ccc(O)cc1C(=O)O [AVA 2c] | increased | bioaccessibility, times lower compared to AVA 2f [3, 7]: 3.9 times; bioaccessibility, times lower compared to AVA 2p [3, 7]: 4.6 times; bioaccessibility, times increase [3, 8]: 3.6 times
2.1 ± 0.22 | 2.28 ± 0.18 | 8.33e-05 | 0.69 ± 0.07 | 3.2 | 6.11e-05 | 1.11 ± 0.05 | 0.98 ± 0.04 | 1600 (34) L | 4.8 (3) 1/h | – | 5.0 ± 0.3^2 1/h | 1641 ± 168^2 | 2600 (5) L | 3.8 (26) 1/h | – | 3.8 ± 0.21 | 2561 ± 262 | no significant associations | COc1cc(/C=C/C(=O)Nc2ccc(O)cc2C(=O)O)ccc1O [AVA 2f] | decreased | T1/2 ([1]; liquid): 3.19 ± 0.25^2 h; change of bioaccessibility [3, 8]: slight increase
20 ± 2.12 | 1.42 ± 0.11 | 0.000136 | 4.94 ± 0.5 | 1.3 | 0.000144 | 1.91 ± 0.08 | 1.21 ± 0.05 | 113 (16) L | 2.8 (9) 1/h | 0.52 (10) 1/h | 2.8 ± 0.2^1 1/h | 111 ± 11^1 | 220 (22) L | 1.6 (10) 1/h | 0.44 (17) 1/h | 1.50 ± 0.08 | 250 ± 26 | no significant associations | O=C(/C=C/c1ccc(O)cc1)Nc1ccc(O)cc1C(=O)O [AVA 2p] | decreased | T1/2 ([1]; liquid): 1.33 ± 0.10 h; change of bioaccessibility [3, 8]: slight increase
